# Biological target: herpes protease (HSV-1 UL26 product, Pra) (Human herpesvirus 1, UniProt P10210)
# Type: biochemical
# Sequence of herpes protease (HSV-1 UL26 product, Pra) (P10210 whole entry, looked up): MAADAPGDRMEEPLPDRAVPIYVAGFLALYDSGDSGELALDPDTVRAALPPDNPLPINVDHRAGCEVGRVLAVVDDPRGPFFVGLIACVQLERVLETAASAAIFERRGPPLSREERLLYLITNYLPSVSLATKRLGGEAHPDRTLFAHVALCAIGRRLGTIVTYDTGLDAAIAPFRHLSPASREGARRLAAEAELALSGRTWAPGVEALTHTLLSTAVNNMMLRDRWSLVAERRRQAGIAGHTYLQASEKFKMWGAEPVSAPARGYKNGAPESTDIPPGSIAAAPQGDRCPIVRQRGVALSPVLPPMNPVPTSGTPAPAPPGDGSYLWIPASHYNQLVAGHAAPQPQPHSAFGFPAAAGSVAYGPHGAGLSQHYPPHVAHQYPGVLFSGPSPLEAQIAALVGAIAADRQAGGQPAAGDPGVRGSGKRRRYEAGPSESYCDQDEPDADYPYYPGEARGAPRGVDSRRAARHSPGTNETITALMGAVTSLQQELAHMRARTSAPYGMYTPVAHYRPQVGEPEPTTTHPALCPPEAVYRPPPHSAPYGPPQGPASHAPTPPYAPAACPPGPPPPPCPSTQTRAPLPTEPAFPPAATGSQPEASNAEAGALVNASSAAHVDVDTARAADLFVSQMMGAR
Structure (SMILES),inhibition of the protease [%],inhibition of the protease self-cleavage
CC(C)C[C@H](NC(=O)[C@@H](NC(=O)N[C@@H](Cc1ccccc1)C(=O)O)[C@@H]1CCN=C(N)N1)C(=O)N[C@H](C=O)Cc1ccccc1 [chymostatin],100,–
O=S(=O)(F)Cc1ccccc1 [Phenylmethansulfonyl fluoride],–,partially inhibiting
"CCCCCCCCCCCCOS(=O)(=O)[O-].[Na+] [SDS, sodium dodecyl sulphate]",–,100%

# Source: patent US6410704B1 (priority 1991, dated 2002)
